Experimental data as given in US20250368687A1, “SHORT SYNTHETIC PEPTIDES AND USES THEREOF IN THE TREATMENT OF ENTEROVIRUS INFECTION” (CITY UNIVERSITY OF HONG KONG, priority 2024, published 2025).

Assays:
[1] = test system: EV-A71; assay: Viral RNA quantification by RT-qPCR; assay type: cell-based; conditions: for effect on viral RNA level: 8 μM; for decrease of extracellular viral RNA level: 25 μM, EV-A71 MOI 1 for 12 hours; for decrease of extracellular viral RNA level / decrease of viral RNA / viral RNA level (in words): RD cells; for decrease of viral RNA: 50 μM; for decrease of viral RNA / viral RNA level (in words): intracellular viral RNA; for viral RNA level (in words): indicated concentrations
Description: FIGS. 7A-7D Ser78 phosphorylation-deficient Hsp27 inhibits EV-A71 replication and propagation (FIG. 7A) HEK 293T cells were transfected with 500 ng Hsp27 (WT, 3A, S15A, S78A, S82A) plasmids for 48 hours, and then infected with EV-A71 at an MOI of 10 for 9h. Intracellular viral RNA were extracted and quantified by qPCR. (FIG. 7B) HEK 293T cells were transfected with 500 ng Hsp27 (WT, 3D, S15D, S78D, S82D) plasmids for 48 hours, and then infected with EV-A71 at an MOI of 10 for 9h. Intracellular viral RNA were extracted and quantified by qPCR. (FIG. 7C) HEK 293T cells were transfected with 500 ng Hsp27 (WT, S78A, S78D) plasmids for 48 hours, and treated with 8 μM SB203580 2 hours before infection with EV-A71. (FIG. 7D) HEK 293T cells were transfected with 500 ng Hsp27 (WT, 3A, S15A, S78A, S82A) plasmids for 48 hours, and then infected with EV-A71 at an MOI of 10 for 12h. Viral titration was calculated by TCID50. Statistical analyses were carried out using Student's t-test. *: p<0.05, **: p<0.01, ***: p<0.001. Data are expressed as mean ±SD.
FIGS. 10A-10K. Peptide S78 inhibited EV-A71 replication and propagation. (FIG. 10A) RD cells were pre-treated with peptides S78 or for 2 hours and infected with EV-A71 at the MOI of 10 for 6 hours. Cell lysates were collected for western blot assay. Hsp27 phosphorylation on Ser 15, 78, 82 were detected by specific antibodies. β-Actin were detected as internal control. (FIG. 10B) Densitometric analysis of FIG. 9A. (FIG. 10C) HEK 293T cells were pre-treated with peptides S78 or S78A at the concentration of 25 μM for 2 hours and then co-transfected with Hsp27-WT plasmid (800 ng), pIRES reporter plasmid (200 ng) and 2A^pro-expressing plasmid or 2AC110A-expressing plasmid (200 ng) for 24 h, then the luciferase activity was measured. (FIG. 10D-10E) RD cells were treated with peptides S78 or S78A and then infected with EV-A71. EV-A71 VP1 were detected. (FIG. 10F) RD cells were treated with peptides and then infected with EV-A71 at the MOI of 1 for 12 hours. The EV-A71-induced CPE was captured. (FIG. 10G-10H) Intracellular viral RNA was extracted and quantified by qPCR. (FIG. 10I) Densitometric analysis FIG. 9D-E. (FIG. 10J) RD cells were treated with peptides S78 or and then infected with EV-A71 at the MOI of 1 for 12 hours. Extracellular viral RNA was extracted and quantified by qPCR. (FIG. 10K) Viral titration was calculated by TCID50. The Statistical analyses were carried out using Student's t-test. *: p<0.05, **: p<0.01, ***: p<0.001. Data are expressed as mean ±SD.
FIGS. 11A-11G Inhibition of EV-A71 Protein Translation and Viral Reproduction by peptide S82A. (FIG. 11A) HEK 293T cells were pre-treated with peptides NC, S78, S78A, S82A, or S78-3A at the concentration of 25 μM for 2 hours and then co-transfected with Hsp27-WT plasmid (800 ng), pIRES reporter plasmid (200 ng) and 2A^pro-expressing plasmid for 24 h, then the luciferase activity was measured. (FIG. 11B) RD cells were pre-treated with peptides NC at indicated concentrations for 2 hours and infected with EV-A71 at the MOI of 1 for 9 hours. Intracellular viral RNA was extracted and quantified by qPCR. (FIG. 11C-11E) RD cells were treated with peptides NC, S82A, or S78-3A at indicated concentrations for 2 hours and then infected with EV-A71 at the MOI of 1 for 9 hours. Cell lysates were collected for western blot assay. EV-A71 VP1 were detected. β-Actin was detected as an internal control. (FIG. 11F) Densitometric analysis of the EV-A71 VP1 level in FIG. S7C-E was quantified and normalized with β-Actin using ImageJ. (FIG. 11G) RD cells were treated with peptides S78, S78A, S82A, or S78-3A at the concentration of 25 μM for 2 hours and then infected with EV-A71 at the MOI of 0.1 for 24 hours. Viral titration was calculated. The Statistical analyses were carried out using Student's t-test. *: p<0.05, **: p<0.01, ***: p<0.001. Data are expressed as mean ±SD. […]

[2] = test system: Hsp27 and hnRNP A1 redistribution in RD cells; assay: Immunofluorescence colocalization assay of Hsp27/hnRNP A1 redistribution, RD cells with or without EV-A71 infection; assay type: cell-based; conditions: for fraction of Hsp27 overlapping DAPI (M1 colocalization coefficient): EV-A71-infected RD cells; for redistribution of Hsp27 and hnRNP A1 in EV-A71-infected RD cells / localization of Hsp27 and hnRNP A1 in mock RD cells: 25 μM for 2h; for redistribution of Hsp27 and hnRNP A1 in EV-A71-infected RD cells: EV-A71 MOI 40 for 6h; for localization of Hsp27 and hnRNP A1 in mock RD cells: without EV-A71
Description: The cells on coverslips were infected with EV-A71 at the multiplicity of infection (MOI) of 40 for 6 hrs to assure the high efficiency of viral infection. Then the cells were fixed by 4% paraformaldehyde for 20 min, permeabilized by 0.5% Triton X-100 for 15 min, blocked with 5% BSA for 2 hrs, and stained by incubation with anti-Hsp27 (GTX101145) and anti-hnRNP A1 (sc-32301) antibody, then with Alexa Fluor 488 conjugated anti-rabbit antibody and Alexa Fluor 594 conjugated anti-mouse antibody respectively. After washing four times with 0.2% Triton X-100, the nuclei were stained with DAPI or Hoechst for 5 min. The images were captured by a Nikon A1HD25 High speed and Large Field of View Confocal Microscope. Colocalization analysis was conducted using the JACoP-plugin of the extended ImageJ version Fiji. The M1 colocalization coefficient was computed to illustrate the colocalization levels of Hsp27 and hnRNP A1 overlapped with Hoechst.
Hsp27 is predominantly located in the cytoplasm, however, stress (e.g., heat shock, virus infection) can induce partial redistribution of Hsp27 from the cytoplasm to the nucleus, concomitantly with its phosphorylation. We thus postulated that the cellular redistribution of Hsp27 may be associated with its phosphorylation upon EV-A71 infection. To verify the hypothesis, RD cells were with SB203580 at 0, 2, 4, and 8 μM for 2 h, and the cells were infected with EV-A71 for 6 h. […] The colocalization of Hsp27 and DAPI, which stands for the level of redistribution of Hsp27, was also quantified. The colocalization coefficient M1 was computed as the fraction of Hsp27 colocalized with DAPI in the total Hsp27 area using the JACoP-plugin in FIJI.
We hypothesized that peptides S78 and S82A could interfere with Ser78 phosphorylation while peptides S78A (Ser78 replaced by Ala78) would not affect the phosphorylation of Ser78 of Hsp27. […] RD cells were pre-treated with peptide S78, S78A or S82A at the concentrations of 25 μM for 2h and then infected with or without EV-A71 at an MOI of 40 for 6h.

Row | Compound | decrease of viral RNA level ([1]; 8 μM 2 hours before infection, Hsp27 over-expressing HEK 293T cells) [%] | effect on viral RNA level ([1]; Hsp27 S78A-expressing HEK 293T cells) | effect on viral RNA level ([1]; Hsp27 S78D-expressing HEK 293T cells) | fraction of Hsp27 overlapping DAPI (M1 colocalization coefficient) ([2]; 0, 2, 4, 8 μM) | nuclear Hsp27 level upon EV-A71 infection ([2]; 2 μM for 2 h, EV-A71 6 h, RD cells) | nuclear relocation of Hsp27 upon EV-A71 infection ([2]; 4 μM for 2 h, EV-A71 6 h, RD cells) | fraction of Hsp27 overlapping DAPI (M1 colocalization coefficient) ([2]; 8 μM) | Hsp27 translocation to the nucleus without EV-A71 infection ([2]; RD cells without EV-A71 infection) | decrease of extracellular viral RNA level [1] [folds] | decrease of viral RNA [1] [%] | redistribution of Hsp27 and hnRNP A1 in EV-A71-infected RD cells [2] | localization of Hsp27 and hnRNP A1 in mock RD cells [2] | viral RNA level (in words) [1]
1 | C[S+]([O-])c1ccc(-c2nc(-c3ccncc3)c(-c3ccc(F)cc3)[nH]2)cc1 (stereo not shown) [SB203580, reference compound] | 50 | no obvious effects | no obvious effects | reduced in a dose-dependent manner | markedly reduced | further blocked to an invisible level | reduced to the basal level | not translocated to the nucleus |  |  |  |  | 
2 | Ac-RKKRRQRRRAYSRALARQLSS-NH2 [S78A] |  |  |  |  |  |  |  |  | 30 | 46 | only partially reduced | not affected | 
3 | Ac-RKKRRQRRRAYSRALSRQLSS-NH2 [S78] |  |  |  |  |  |  |  |  | 800 | 82 | dramatically blocked | not affected | dramatically reduced
4 | Ac-RKKRRQRRRYSREANQPKPSPKRESGEE-NH2 [NC, reference compound] |  |  |  |  |  |  |  |  |  |  | did not affect |  | no effect
